Assays:
[1] = species: Rattus norvegicus; test: Biodistribution in rat striatum after 60 min time interval; format: ADME, organism-based; settings: in vivo, 1 h
[2] = species: Rattus norvegicus; test: Biodistribution in rat striatum after 90 min time interval; format: ADME, organism-based; settings: in vivo, 1.5 h
[3] = species: Rattus norvegicus; test: Biodistribution in rat testes after 15 min time interval; format: ADME, organism-based, Testis; settings: in vivo, 0.25 h
[4] = species: Rattus norvegicus; test: Biodistribution in rat testes after 30 min time interval; format: ADME, organism-based, Testis; settings: in vivo, 0.5 h
[5] = species: Rattus norvegicus; test: Biodistribution in rat testes after 5 min time interval; format: ADME, organism-based, Testis; settings: in vivo
[6] = species: Rattus norvegicus; test: Biodistribution in rat testes after 90 min time interval; format: ADME, organism-based, Testis; settings: in vivo, 1.5 h
[7] = species: Rattus norvegicus; test: Biodistribution in rat adrenal after 15 min time interval; format: ADME, organism-based; settings: in vivo, 0.25 h
[8] = species: Rattus norvegicus; test: Biodistribution in rat adrenal after 30 min time interval; format: ADME, organism-based; settings: in vivo, 0.5 h
[9] = species: Rattus norvegicus; test: Biodistribution in rat adrenal after 5 min time interval; format: ADME, organism-based; settings: in vivo
[10] = species: Rattus norvegicus; test: Biodistribution in rat adrenal after 60 min time interval; format: ADME, organism-based; settings: in vivo, 1 h
[11] = species: Rattus norvegicus; test: Biodistribution in rat adrenal after 90 min time interval; format: ADME, organism-based; settings: in vivo, 1.5 h
[12] = species: Rattus norvegicus; test: Biodistribution in rat anti-CTX after 15 min time interval; format: ADME, organism-based; settings: in vivo, 0.25 h
[13] = species: Rattus norvegicus; test: Biodistribution in rat cerebellem after 15 min time interval; format: ADME, organism-based, Cerebellum; settings: in vivo, 0.25 h
[14] = species: Rattus norvegicus; test: Biodistribution in rat cerebellem after 30 min time interval; format: ADME, organism-based, Cerebellum; settings: in vivo, 0.5 h
[15] = species: Rattus norvegicus; test: Biodistribution in rat cerebellem after 5 min time interval; format: ADME, organism-based, Cerebellum; settings: in vivo
[16] = species: Rattus norvegicus; test: Biodistribution in rat cerebellem after 60 min time interval; format: ADME, organism-based, Cerebellum; settings: in vivo, 1 h
[17] = species: Rattus norvegicus; test: Biodistribution in rat cerebellem after 90 min time interval; format: ADME, organism-based, Cerebellum; settings: in vivo, 1.5 h
[18] = species: Rattus norvegicus; test: Biodistribution in rat heart after 15 min time interval; format: ADME, organism-based; settings: in vivo, 0.25 h
[19] = species: Rattus norvegicus; test: Biodistribution in rat heart after 30 min time interval; format: ADME, organism-based; settings: in vivo, 0.5 h
[20] = species: Rattus norvegicus; test: Biodistribution in rat heart after 5 min time interval; format: ADME, organism-based; settings: in vivo
[21] = species: Rattus norvegicus; test: Biodistribution in rat heart after 60 min time interval; format: ADME, organism-based; settings: in vivo, 1 h
[22] = species: Rattus norvegicus; test: Biodistribution in rat heart after 90 min time interval; format: ADME, organism-based; settings: in vivo, 1.5 h
[23] = species: Rattus norvegicus; test: Biodistribution in rat hippocampus after 15 min time interval; format: ADME, organism-based; settings: in vivo, 0.25 h
[24] = species: Rattus norvegicus; test: Biodistribution in rat hippocampus after 30 min time interval; format: ADME, organism-based; settings: in vivo, 0.5 h
[25] = species: Rattus norvegicus; test: Biodistribution in rat plasma after 15 min time interval; format: ADME, organism-based; settings: in vivo, 0.25 h
[26] = species: Rattus norvegicus; test: Biodistribution in rat plasma after 30 min time interval; format: ADME, organism-based; settings: in vivo, 0.5 h
[27] = species: Rattus norvegicus; test: Biodistribution in rat muscle after 90 min time interval; format: ADME, organism-based, Muscle tissue; settings: in vivo, 1.5 h
[28] = species: Rattus norvegicus; test: Biodistribution in rat pituitary after 15 min time interval; format: ADME, organism-based, Pituitary gland; settings: in vivo, 0.25 h
[29] = species: Rattus norvegicus; test: Biodistribution in rat pituitary after 30 min time interval; format: ADME, organism-based, Pituitary gland; settings: in vivo, 0.5 h
[30] = species: Rattus norvegicus; test: Biodistribution in rat pituitary after 60 min time interval; format: ADME, organism-based, Pituitary gland; settings: in vivo, 1 h
[31] = species: Rattus norvegicus; test: Biodistribution in rat pituitary after 90 min time interval; format: ADME, organism-based; settings: in vivo, 1.5 h
[32] = species: Rattus norvegicus; test: Biodistribution in rat kidney after 60 min time interval; format: ADME, organism-based; settings: in vivo, 1 h
[33] = species: Rattus norvegicus; test: Biodistribution in rat kidney after 90 min time interval; format: ADME, organism-based; settings: in vivo, 1.5 h
[34] = species: Rattus norvegicus; test: Biodistribution in rat liver after 15 min time interval; format: ADME, organism-based; settings: in vivo, 0.25 h
[35] = species: Rattus norvegicus; test: Biodistribution in rat liver after 30 min time interval; format: ADME, organism-based; settings: in vivo, 0.5 h
[36] = species: Rattus norvegicus; test: Biodistribution in rat liver after 5 min time interval; format: ADME, organism-based; settings: in vivo
[37] = species: Rattus norvegicus; test: Biodistribution in rat liver after 60 min time interval; format: ADME, organism-based; settings: in vivo, 1 h
[38] = species: Rattus norvegicus; test: Biodistribution in rat lung after 15 min time interval; format: ADME, organism-based; settings: in vivo, 0.25 h
[39] = species: Rattus norvegicus; test: Biodistribution in rat lung after 30 min time interval; format: ADME, organism-based; settings: in vivo, 0.5 h
[40] = species: Rattus norvegicus; test: Biodistribution in rat lung after 5 min time interval; format: ADME, organism-based; settings: in vivo
[41] = species: Rattus norvegicus; test: Biodistribution in rat lung after 60 min time interval; format: ADME, organism-based; settings: in vivo, 1 h
[42] = species: Rattus norvegicus; test: Biodistribution in rat lung after 90 min time interval; format: ADME, organism-based; settings: in vivo, 1.5 h
[43] = species: Rattus norvegicus; test: Biodistribution in rat muscle after 15 min time interval; format: ADME, organism-based, Muscle tissue; settings: in vivo, 0.25 h
[44] = species: Rattus norvegicus; test: Biodistribution in rat muscle after 30 min time interval; format: ADME, organism-based, Muscle tissue; settings: in vivo, 0.5 h
[45] = species: Rattus norvegicus; test: Biodistribution in rat muscle after 5 min time interval; format: ADME, organism-based, Muscle tissue; settings: in vivo
[46] = species: Rattus norvegicus; test: Biodistribution in rat muscle after 60 min time interval; format: ADME, organism-based, Muscle tissue; settings: in vivo, 1 h
[47] = species: Rattus norvegicus; test: Biodistribution in rat trachea after 90 min time interval; format: ADME, organism-based; settings: in vivo, 1.5 h
[48] = species: Rattus norvegicus; test: Biodistribution in rat liver after 90 min time interval; format: ADME, organism-based; settings: in vivo, 1.5 h
[49] = species: Rattus norvegicus; test: Biodistribution in rat pituitary after 5 min time interval; format: ADME, organism-based, Pituitary gland; settings: in vivo
[50] = species: Rattus norvegicus; test: Biodistribution in rat blood after 5 min time interval; format: ADME, organism-based; settings: in vivo

[11CH3]Oc1ccc(CCCn2ncc3c2nc(N)n2nc(-c4ccco4)nc32)cc1
ID/g [1]: 0.06%
ID/g [2]: 0.04%
ID/g [3]: 0.13%
ID/g [4]: 0.23%
ID/g [5]: 0.12%
ID/g [6]: 0.03%
ID/g [7]: 0.44%
ID/g [8]: 0.25%
ID/g [9]: 0.85%
ID/g [10]: 0.13%
ID/g [11]: 0.14%
ID/g [12]: 0.12%
ID/g [13]: 0.1%
ID/g [14]: 0.05%
ID/g [15]: 0.19%
ID/g [16]: 0.02%
ID/g [17]: 0.02%
ID/g [18]: 0.15%
ID/g [19]: 0.09%
ID/g [20]: 0.26%
ID/g [21]: 0.04%
ID/g [22]: 0.04%
ID/g [23]: 0.09%
ID/g [24]: 0.04%
ID/g [25]: 0.13%
ID/g [26]: 0.08%
ID/g [27]: 0.02%
ID/g [28]: 0.06%
ID/g [29]: 0.05%
ID/g [30]: 0.02%
ID/g [31]: 0.03%
ID/g [32]: 0.13%
ID/g [33]: 0.11%
ID/g [34]: 0.74%
ID/g [35]: 0.52%
ID/g [36]: 0.94%
ID/g [37]: 0.36%
ID/g [38]: 0.52%
ID/g [39]: 0.2%
ID/g [40]: 0.38%
ID/g [41]: 0.37%
ID/g [42]: 0.23%
ID/g [43]: 0.11%
ID/g [44]: 0.05%
ID/g [45]: 0.15%
ID/g [46]: 0.04%
ID/g [47]: 0.03%
ID/g [48]: 0.37%
ID/g [49]: 0.18%
ID/g [50]: 0.13%

— ChEMBL document CHEMBL1133517, “Design, radiosynthesis, and biodistribution of a new potent and selective ligand for in vivo imaging of the adenosine A(2A) receptor system using positron emission tomography” (J Med Chem, 2000)
